Drawing on PubChem BioAssay (NCI), this text covers GI50 and TGI for eight compounds.

Among the test systems are T-47D breast; U251 CNS; UACC-62 melanoma; SW-620 colon; NCI-H226 lung; A549 NSCLC; HCT-116 colon; BT-549 breast; OVCAR-8 ovarian; SNB-75 CNS.
What all share (assay): NCI anticancer screen, dose series, 48 h

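How tested: cells in 96-well plates exposed to compound for 48 hours at five concentrations. GI50 = concentration required for 50% inhibition of growth. Definition used: TGI = concentration required for complete inhibition of growth.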 A value given as a limit tells only on which side of the number the result lay.

Regarding `COc1cc2c3c(n(C)c(=O)c2cc1OC)-c1cc2c(cc1/C3=C\C(N)CN)OCO2` (stereo not drawn), the GI50 in the assay on T-47D breast was 1.94 µM; in the assay with U251 CNS it was 0.371 µM; in the assay with UACC-62 melanoma, 0.707 µM; in the assay with SW-620 colon, 0.689 µM; in the assay on NCI-H226 lung, 1.89 µM; with A549 NSCLC it was 3.5 µM. Further, the GI50 with HCT-116 colon is 1.16 µM; with BT-549 breast, 0.72 µM; in the assay with OVCAR-8 ovarian, 1.75 µM; with SNB-75 CNS, 3.6 µM. Moreover, the TGI with T-47D breast is 10.3 µM; in the assay on U251 CNS it was 2.42 µM; in the assay on UACC-62 melanoma, 3.66 µM; in the assay on SW-620 colon, 11.9 µM; with NCI-H226 lung, above 22.4 µM; in the assay with A549 NSCLC, 21.1 µM. Also, the TGI with HCT-116 colon was 2.44 µM; in the assay on BT-549 breast it was 4.52 µM; with OVCAR-8 ovarian it was 18.8 µM; with SNB-75 CNS, above 31.3 µM.

Take `CCNCCNc1cc(C2CCCCC2)c(C#N)c2nc3ccccc3n12`: the GI50 is 1.58 µM with T-47D breast; 1.48 µM in the assay with U251 CNS; 1.9 µM with UACC-62 melanoma; 1.44 µM with SW-620 colon; 1.71 µM in the assay with NCI-H226 lung; 2.19 µM in the assay with A549 NSCLC. Moreover, the GI50 in the assay with HCT-116 colon is 1.37 µM; with BT-549 breast, 1.77 µM; in the assay on OVCAR-8 ovarian it was 2.93 µM; with SNB-75 CNS, 1.52 µM. Besides, the TGI with T-47D breast turned out to be 3.42 µM; in the assay on U251 CNS, 3.42 µM; in the assay on UACC-62 melanoma it was 3.75 µM; in the assay on SW-620 colon, 3.15 µM; in the assay on NCI-H226 lung, 3.32 µM; with A549 NSCLC, 4.76 µM. Further, the TGI with HCT-116 colon was 2.72 µM; in the assay with BT-549 breast, 3.64 µM; in the assay on OVCAR-8 ovarian, 7.99 µM; in the assay on SNB-75 CNS, 3.4 µM.

Take `c1ccc(CSc2nnc3c4ccccc4c4ccccc4c3n2)cc1`: the TGI with T-47D breast, in the assay on U251 CNS, in the assay on UACC-62 melanoma, with SW-620 colon, with NCI-H226 lung and in the assay on A549 NSCLC was above 100 µM in each case. The TGI in the assay with HCT-116 colon was above 100 µM; with BT-549 breast it was above 100 µM; in the assay on OVCAR-8 ovarian it was above 100 µM; in the assay on SNB-75 CNS, 21.6 µM.

Take `Nc1c(C(=O)Nc2ccccc2)sc2nc3c(cc12)CN(Cc1ccccc1)CC3`: the GI50 was 16.2 µM in the assay on T-47D breast; 13.9 µM with U251 CNS; 13.9 µM in the assay on UACC-62 melanoma; 20.8 µM with SW-620 colon; 4.91 µM in the assay with NCI-H226 lung; 13.9 µM in the assay with A549 NSCLC. Besides, the GI50 with HCT-116 colon is 11 µM; in the assay with BT-549 breast, 16.8 µM; with OVCAR-8 ovarian, 16.8 µM. Besides, the TGI with T-47D breast, with U251 CNS, in the assay on UACC-62 melanoma, with SW-620 colon, with NCI-H226 lung and with A549 NSCLC was above 100 µM in each case. Also, the TGI was above 100 µM in the assay with HCT-116 colon, 92.3 µM in the assay with BT-549 breast and above 100 µM in the assay with OVCAR-8 ovarian.

With `CC(=O)O[C@H]1CC[C@@]2(C)[C@@H](CC[C@@H]3[C@@H]2CC[C@]2(C)C=C(C=O)C[C@@H]32)C1`, the GI50 is 3.74 µM in the assay on T-47D breast; 2.02 µM in the assay with U251 CNS; 3.42 µM with SW-620 colon; 28.8 µM in the assay with NCI-H226 lung; 25.8 µM with A549 NSCLC; 1.66 µM with HCT-116 colon. Besides, the GI50 in the assay on BT-549 breast is 12.1 µM; in the assay with OVCAR-8 ovarian, 2.96 µM; in the assay with SNB-75 CNS it was 9.36 µM. Also, the TGI in the assay on T-47D breast is 15.5 µM; in the assay with U251 CNS, 4.9 µM; in the assay with SW-620 colon, 10.7 µM; with NCI-H226 lung it was above 100 µM; with A549 NSCLC it was above 100 µM; in the assay on HCT-116 colon it was 3.42 µM. Also, the figures for the TGI in the assay with BT-549 breast, in the assay on OVCAR-8 ovarian and in the assay on SNB-75 CNS were 32.3 µM, 9.59 µM and 22.2 µM, respectively.

Take `CCCCCCCOc1c(OC)cc(C2CC(=O)Nc3c2c(C)nn3-c2nc3ccccc3[nH]2)cc1OC` (stereo not drawn): the GI50 was 3.95 µM in the assay with T-47D breast; 3.72 µM in the assay on U251 CNS; 2.54 µM in the assay with UACC-62 melanoma; 2.11 µM in the assay on SW-620 colon; 2.1 µM in the assay on NCI-H226 lung; 4.18 µM with A549 NSCLC. Besides, the GI50 in the assay with HCT-116 colon is 3.49 µM; in the assay on BT-549 breast it was 3.4 µM; in the assay on OVCAR-8 ovarian, 4.28 µM. For the same compound, the TGI in the assay on T-47D breast is above 100 µM; in the assay with U251 CNS, above 100 µM; in the assay with UACC-62 melanoma it was 7.3 µM; in the assay on SW-620 colon, 5.18 µM; in the assay on NCI-H226 lung, 4.56 µM; in the assay with A549 NSCLC, above 100 µM. The TGI with HCT-116 colon is above 100 µM; with BT-549 breast, 47.5 µM; in the assay on OVCAR-8 ovarian it was above 100 µM.

`COc1ccc(-c2nn(-c3cccc(Cl)c3)cc2-c2cc(-c3ccccc3)nc(N)n2)cc1`: the GI50 in the assay with T-47D breast is 4.49 µM; in the assay on U251 CNS it was 1.59 µM; with UACC-62 melanoma, 8.06 µM; in the assay on NCI-H226 lung, 4.99 µM; in the assay with A549 NSCLC it was 2.7 µM; in the assay with BT-549 breast it was 4.31 µM. The results for the GI50 with OVCAR-8 ovarian and in the assay with SNB-75 CNS were 1.9 µM and 4.32 µM, respectively. The TGI with T-47D breast came to 17.1 µM; in the assay with U251 CNS, 3.03 µM; with UACC-62 melanoma, 26 µM; in the assay on NCI-H226 lung it was 22 µM; with A549 NSCLC, 13.7 µM; in the assay on BT-549 breast, 16.9 µM. For the same compound, the TGI was found to be 3.78 µM in the assay on OVCAR-8 ovarian and 22 µM with SNB-75 CNS.

In the case of `COC(=O)C1=C(OC(=O)c2ccc(Cl)cc2)C(C(=O)OC)[C@@]2(O)[C@@H](C(=O)OC)C(c3ccccc3Cl)C[C@@H]1[C@@H]2C(=O)OC` (stereo partly drawn), the GI50 with T-47D breast is 9.39 µM; with U251 CNS, 3.4 µM; in the assay with UACC-62 melanoma, 2.21 µM; with SW-620 colon it was 4.54 µM; in the assay with A549 NSCLC it was 3.16 µM; in the assay on HCT-116 colon it was 3.17 µM. The results for the GI50 in the assay with BT-549 breast, in the assay on OVCAR-8 ovarian and with SNB-75 CNS were 5.47 µM, 2.61 µM and 5.05 µM, respectively. The TGI in the assay on T-47D breast is above 100 µM; in the assay on U251 CNS, 27 µM; with UACC-62 melanoma, 4.81 µM; in the assay on SW-620 colon, above 100 µM; in the assay with A549 NSCLC it was above 100 µM; with HCT-116 colon it was above 100 µM. In addition, the TGI is above 100 µM with BT-549 breast, 12.8 µM with OVCAR-8 ovarian and 30.3 µM in the assay with SNB-75 CNS.
